In patent US20140120063A1, “NUTRITIONAL AND METABOLIC APPROACHES TO PREVENT EMERGENCE OF ENTERIC PATHOGENS” (The Board of Trustees of the Leland Stanford Junior …, priority 2012, published 2014):

Experiments:
C. difficile = C. difficile density in feces of gnotobiotic mice given exogenous free sialic acid; format: in vivo
Method: (BioTek, Winooski, Vt.) every 30 minutes, at 37° C. anaerobically (6% H2, 20% CO2, 74% N2). Fecal densities (CFU) of C. difficile were quantified by duplicate sampling with 1 μl loops and subsequent dilution and spot plating on blood-BHI supplemented with erythromycin.
Germ-free Swiss-Webster mice were maintained in gnotobiotic isolators and fed an autoclaved standard diet (Purina LabDiet 5K67) or a polysaccharide-deficient diet (Sonnenburg, E. D., et al. Cell, 2010. 141(7): p. 1241-52), in accordance with A-PLAC, the Stanford IACUC. For all experiments involving C. difficile colonization of germ-free mice, the diet was switched to polysaccharide-deficient chow one day before inoculation with C. difficile.
(§1) For sialic acid administration experiments, N-acetylneuraminic acid (Calbiochem or Santa Cruz Biotechnology) was administered in the water at a 1% concentration. Additionally, mice were orally gavaged 1 mg of sialic acid twice a day. The amount of sialic acid in the cecal contents were calculated to equal approximately 700 pmoles/mg of cecal contents, which mirrors the average concentration of free sialic acids we quantified post-antibiotic treatment (725 pmoles/mg).

C. difficile nanE = C. difficile nanE gene expression (qRT-PCR) in feces of mice given exogenous free sialic acid; format: in vivo; details: sialic acid-fed Bt-ΔBT0455-associated mice, 1 day post-infection
Method: as §1
qRT-PCR analysis was performed on RNA extracted from cecal or fecal contents by phenolchloroform extraction and bead beating. Superscript II (Invitrogen) was utilized to convert RNA to cDNA, and SYBR Green (ABgene) in a MX3000P thermocycler (Strategene) was utilized. Fold changes were normalized to in vitro growths in Minimal Medium containing 0.5% glucose (MM-G) for C. difficile and LB for S. typhimurium.

[1] = Amount of sialic acid in cecal contents after sialic acid administration; format: in vivo, mice; details: 1% in water plus 1 mg oral gavage twice a day
Method: as §1
All steps were carried out at 4° C. to minimize enzymatic hydrolysis. Approximately 200 mg of flash-frozen cecal contents were weighed out and resuspended in 400 μl dH2O, Samples were vortexed for 30 minutes at max speed and centrifuged for 15 minutes at 14,000×g in the tabletop centrifuge.
The supernatant was stored, and the pellet resuspended in an additional 400 μl dH2O. The tubes were vortexed individually until the pellet was dispersed, and then all samples were vortexed for 30 minutes, centrifuged, and supernatants were pooled. This process was repeated once more for a total volume of approximately 1 ml. […] The resulting product was analyzed by reverse-phase HPLC using a C18 column (Dionex) at a flow rate of 0.9 ml/min, using a gradient of 5% to 11% acetonitrile in 7% methanol. […] The DMB-derivatized sialic acids were identified and quantified by comparing elution times and peak areas to known standards.

[2] = system: S. typhimurium nanA mutant; experiment: Growth of S. typhimurium nanA mutant in minimal medium in the presence of sialic acid; format: cell-based; details: M9 minimal media, 0.25% sialic acid with glucose or glycerol
Method: FIG. 8. Requirement for S. typhimurium nan and fuc operons for in vitro growth on sialic acid and fucose. A) S. typhimurium SL1344 encodes the genes necessary to catabolize sialic acid and fucose. The nan and fuc operons are pictured in their genomic context. B) Growth of wild-type S. typhimurium and mutant S. typhimurium strains in M9 minimal medium containing 0.5% glucose (M9+glucose), 0.5% sialic acid (M9+sialic acid), or 0.5% fucose (M9+fucose). OD600 measurements were taken every 30 minutes. C, D) ΔNanA E. coli (Keio strain JW3194) and wild-type and ΔNanA S. typhimurium SL1344 strains were grown aerobically in M9 minimal media containing 0.5% total carbohydrate. Cells were grown in (C) 0.5% glucose or 0.25% glucose and 0.25% sialic acid, and (D) 0.5% glycerol (gro) or 0.25% glycerol and 0.25% sialic acid. Optical densities were measured at indicated times.
All strains of S. typhimurium were derived from wild-type strain SL1344, which is naturally streptomycin-resistant. […] Fecal densities (CFU) of S. typhimurium were quantified by duplicate sampling with 1 μl loops, and subsequent dilution and spot plating on plain LB agar for gnotobiotic experiments and LB agar with streptomycin for conventional experiments.

## CC(=O)N[C@H]1[C@H]([C@H](O)[C@H](O)CO)OC(O)(C(=O)O)C[C@@H]1O (some centres unmarked) [sialic acid, N-acetylneuraminic acid]
C. difficile; GF mice infected with C. difficile, free sialic acid administration vs PBS, 1 day post-inoculation
  C. difficile density in the lumen of the gut: higher densities
C. difficile; feces, 1 day post-infection, Bt-ΔBT0455 monoassociated mice fed free sialic acid (1% in water plus 1 mg gavage twice a day), unsupplemented controls 6.8×10^7
  C. difficile density: 4.8×10^8 CFU/ml
C. difficile nanE
  C. difficile nanE expression, fold higher over PBS-treated controls: 58 fold
[1]
  amount of sialic acid in the cecal contents: approximately 700 pmoles/mg of cecal contents
[2]
  toxicity of sialic acid to the nanA mutant: did not pose a toxicity issue
